Data: article PMC4231056, “Dihydroflavonol 4-Reductase Genes Encode Enzymes with Contrasting Substrate Specificity and Show Divergent Gene Expression Profiles in Fragaria Species” (PLoS ONE, 2014)

Tests used:
[1] = biological target: T1, DFR2s (recombinant, F. vesca) (Fragaria vesca, UniProt A0A0A0PVL5); assay: radiolabelled turnover assay, yeast protein preparation; type: biochemical; settings: NADPH; labelled compound (14C)
T1 construct: gene DFR; full-length ORF, 349 residues; expressed in yeast from pYES vector; not purified; result stated for all clones together
T1 sequence (A0A0A0PVL5 1-349): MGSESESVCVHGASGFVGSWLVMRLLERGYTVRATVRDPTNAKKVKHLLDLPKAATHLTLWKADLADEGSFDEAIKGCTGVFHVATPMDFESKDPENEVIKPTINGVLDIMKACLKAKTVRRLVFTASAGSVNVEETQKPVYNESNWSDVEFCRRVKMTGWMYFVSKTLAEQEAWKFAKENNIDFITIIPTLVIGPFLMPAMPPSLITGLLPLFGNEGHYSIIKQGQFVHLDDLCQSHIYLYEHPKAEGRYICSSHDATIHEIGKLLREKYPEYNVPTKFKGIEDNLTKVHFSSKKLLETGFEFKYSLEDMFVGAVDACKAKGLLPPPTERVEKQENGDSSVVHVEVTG

[2] = biological target: T2, DFR1s (recombinant, F. vesca) (Fragaria vesca, UniProt A0A0A0PTI9); assay: as above; type: biochemical; settings: NADPH; labelled compound (14C)
T2 construct: gene DFR; full-length ORF, 333 residues; expressed in yeast from pYES vector; not purified; result stated for all clones together
T2 sequence (A0A0A0PTI9 1-333): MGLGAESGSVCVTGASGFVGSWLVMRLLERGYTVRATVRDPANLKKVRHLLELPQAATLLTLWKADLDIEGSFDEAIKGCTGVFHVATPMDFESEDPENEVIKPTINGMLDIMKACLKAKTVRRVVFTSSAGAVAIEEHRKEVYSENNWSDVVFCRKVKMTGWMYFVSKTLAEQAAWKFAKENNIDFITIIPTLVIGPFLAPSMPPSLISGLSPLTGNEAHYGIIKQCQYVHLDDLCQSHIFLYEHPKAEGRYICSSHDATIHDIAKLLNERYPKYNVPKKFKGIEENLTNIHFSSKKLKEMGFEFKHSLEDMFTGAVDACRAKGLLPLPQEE

[3] = substrate: O=C1c2c(O)cc(O)cc2O[C@H](c2ccc(O)cc2)[C@H]1O; assay: radiolabelled TLC assay, Lineweaver-Burk, yeast protein preparation; type: biochemical, Fragaria x ananassa; settings: NADPH; optimised conditions (pH optimum 6.00); labelled compound (14C); K cat is per kg protein, a specific rate
Source text: radiolabelled TLC assay, Lineweaver-Burk, yeast protein preparation on DFR1 (recombinant, KC894048)

[4] = substrate: O=C1c2c(O)cc(O)cc2O[C@H](c2cc(O)c(O)c(O)c2)[C@H]1O; assay: as above; type: biochemical, Fragaria x ananassa; settings: NADPH; optimised conditions (pH optimum 5.75); labelled compound (14C); K cat is per kg protein, a specific rate
Source text: (§1) radiolabelled TLC assay, Lineweaver-Burk, yeast protein preparation on DFR2 (recombinant, KC894055)

[5] = substrate: O=C1c2c(O)cc(O)cc2O[C@H](c2ccc(O)c(O)c2)[C@H]1O; assay: as above; type: biochemical, Fragaria x ananassa; settings: NADPH; optimised conditions (pH optimum 6.25); labelled compound (14C); K cat is per kg protein, a specific rate
Source text: as §1

O=C1c2c(O)cc(O)cc2O[C@H](c2cc(O)c(O)c(O)c2)[C@H]1O [DHM]
radiolabelled turnover assay, yeast protein preparation [1]: The recombinant DFR2s converted DHQ and DHM to leucocyanidin and leucodelphinidin

O=C1c2c(O)cc(O)cc2O[C@H](c2ccc(O)c(O)c2)[C@H]1O [DHQ]
radiolabelled turnover assay, yeast protein preparation [1]: The recombinant DFR2s converted DHQ and DHM to leucocyanidin and leucodelphinidin

O=C1c2c(O)cc(O)cc2O[C@H](c2ccc(O)cc2)[C@H]1O [DHK]
radiolabelled turnover assay, yeast protein preparation [2]: Recombinant DFR1 s, in contrast, were selective for DHK

B1: DFR1 (recombinant, KC894048) (Fragaria x ananassa) (protein)
chain: MGLGAESGSVCVTGASGFVGSWLVMRLLEHGYTVRATVRDPANLKKVRHLLELPQAATRLTLWKADLDVEGSFDEAIKGCTGVFHVATPMDFESEDPENEVIKPTINGMLDIMKACLKAKTVRRVVFTSSAGAVAIEEHRKEVYSENNWSDVVFCRKVKMTGWMYFVSKTLAEQAAWKFAKENNIDFITIIPTLVIGPFLAPSMPPSLISGLSPLTGNEAHYGIIKQCQYVHLDDLCQSHIFLYEHPKAEGRYICSSHDATIHDIAKLLNEKYPKYNVPKKFKGIEENLTNIHFSSKKLKEMGFEFKHSLEDMFTGAVDACREKGLLPLPQEEETEKRRAG
notes: full-length ORF, 341 residues; expressed in yeast INVSc1 from pYES2.1/V5-His-TOPO; reverse primer starts with the stop codon; cell protein preparation, not purified
Km [3]: 0.40 µM

B2: DFR2 (recombinant, KC894055) (Fragaria x ananassa) (protein)
chain: MGSESESVCVTGASGFVGSWLVMRLLERGYTVRATVRDPTNAKKVKHLLDLPKAATHLTLWKADLADEGSFDEAIKGCSGVFHVATPMDFESKDPENEVIKPTINGVLDIMKACLKAKTVRRLVFTASAGSVNVEETQKPVYNESNWSDVEFCRRVKMTGWMYFVSKTLAEQEAWKFAKENNIDFITIIPTLVIGPFLMPAMPPSLITGLSPLFGNEGHYSIIKQGQFVHLDDLCQSHIYLYEHPKAEGRYICSSHDATIHEIAKLLREKYPEYNVPTKFKGIEDNLTKVHFSSKKLLETGFEFKYSLEDMFVGAVDACKAKGLLPPPTERVEKQEAGDSGVVHVEVTG
notes: full-length ORF, 349 residues; expressed in yeast INVSc1 from pYES2.1/V5-His-TOPO; reverse primer holds the stop codon; cell protein preparation, not purified
Km [4]: 2.3 µM
Km [5]: 0.40 µM
